From PMC7432833, “Unusual Occurrence of Two Bona-Fide CCA-Adding Enzymes in Dictyostelium discoideum” (International Journal of Molecular Sciences, 2020)
pKd: −log10 of the molar value.

Assays:
[1] = system: T1, CCA2 (tRNA nucleotidyltransferase 2, Q/N-rich) (Dictyostelium discoideum); test: EMSA; settings: 6 mM Mg2+, EMSA: HEPES/KOH pH 7.6 (concentration not stated), 30 mM KCl, 6 mM MgCl2, 20 C, 10 min, 0.5 pmol tRNA, 0-5 uM enzyme, 5% native PAA gel, n=3
T1 sequence: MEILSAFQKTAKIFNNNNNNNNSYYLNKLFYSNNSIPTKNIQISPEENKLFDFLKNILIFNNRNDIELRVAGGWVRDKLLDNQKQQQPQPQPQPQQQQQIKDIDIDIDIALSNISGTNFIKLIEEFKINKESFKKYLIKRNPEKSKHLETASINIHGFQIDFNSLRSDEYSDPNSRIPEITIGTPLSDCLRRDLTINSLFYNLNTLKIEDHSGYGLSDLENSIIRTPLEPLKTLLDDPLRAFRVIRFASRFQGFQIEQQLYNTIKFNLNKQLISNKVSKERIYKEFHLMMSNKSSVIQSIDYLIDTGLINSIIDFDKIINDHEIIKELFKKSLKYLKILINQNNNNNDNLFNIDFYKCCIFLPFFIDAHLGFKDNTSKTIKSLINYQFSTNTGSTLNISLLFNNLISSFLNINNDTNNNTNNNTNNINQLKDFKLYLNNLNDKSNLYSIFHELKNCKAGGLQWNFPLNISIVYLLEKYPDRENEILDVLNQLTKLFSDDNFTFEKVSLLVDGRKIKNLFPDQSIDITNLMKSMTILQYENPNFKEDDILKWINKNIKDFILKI

CCA1 = biological target: T2, CCA1 (Dictyostelium discoideum, UniProt Q54BQ2); test: nucleotide binding assay (supplement)
T2 construct: gene DDB_G0293504; full-length codon-optimized ORF, C-terminal His tag, pET28b(+), E. coli BL21(DE3) delta-cca
T2 sequence (Q54BQ2 1-558): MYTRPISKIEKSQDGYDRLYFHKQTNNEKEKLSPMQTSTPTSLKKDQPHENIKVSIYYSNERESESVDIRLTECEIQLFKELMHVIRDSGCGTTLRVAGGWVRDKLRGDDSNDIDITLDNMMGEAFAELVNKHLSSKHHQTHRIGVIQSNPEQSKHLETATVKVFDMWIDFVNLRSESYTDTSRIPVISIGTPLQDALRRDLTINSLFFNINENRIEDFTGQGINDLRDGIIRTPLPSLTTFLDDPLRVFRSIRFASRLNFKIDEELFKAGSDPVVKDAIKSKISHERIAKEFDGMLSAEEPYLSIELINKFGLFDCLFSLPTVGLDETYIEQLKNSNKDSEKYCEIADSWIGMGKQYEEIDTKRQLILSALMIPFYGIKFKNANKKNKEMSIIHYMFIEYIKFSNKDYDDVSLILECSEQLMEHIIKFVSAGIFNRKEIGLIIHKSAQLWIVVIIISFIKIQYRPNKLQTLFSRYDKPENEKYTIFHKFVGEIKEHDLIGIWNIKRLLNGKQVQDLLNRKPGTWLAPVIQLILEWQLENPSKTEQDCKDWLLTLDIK

CCA2 = biological target: T3, CCA2 (Dictyostelium discoideum, UniProt Q55BE1); test: nucleotide binding assay (supplement)
T3 construct: gene DDB_G0271378; full-length codon-optimized ORF, C-terminal His tag, pET28b(+), E. coli BL21(DE3) delta-cca; Q/N-rich
T3 sequence (Q55BE1 1-542): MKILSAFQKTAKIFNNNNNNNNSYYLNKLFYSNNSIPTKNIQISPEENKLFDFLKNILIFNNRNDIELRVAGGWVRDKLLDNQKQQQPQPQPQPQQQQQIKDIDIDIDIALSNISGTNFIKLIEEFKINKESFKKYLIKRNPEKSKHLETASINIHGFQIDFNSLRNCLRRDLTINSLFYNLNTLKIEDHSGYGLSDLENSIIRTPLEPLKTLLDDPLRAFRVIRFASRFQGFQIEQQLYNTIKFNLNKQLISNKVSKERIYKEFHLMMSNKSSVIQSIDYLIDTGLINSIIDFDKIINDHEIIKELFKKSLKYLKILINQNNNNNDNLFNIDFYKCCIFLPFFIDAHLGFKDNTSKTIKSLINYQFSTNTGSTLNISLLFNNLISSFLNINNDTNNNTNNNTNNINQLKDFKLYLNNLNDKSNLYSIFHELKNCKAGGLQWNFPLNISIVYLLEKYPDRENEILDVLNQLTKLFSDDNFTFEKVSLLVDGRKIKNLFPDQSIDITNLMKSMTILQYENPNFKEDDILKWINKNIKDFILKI

tRNAPhe-CC in vitro transcript (yeast per Fig. 5 legend)
pKd [1]: 5.64

Nc1ncnc2c1ncn2[C@@H]1O[C@H](COP(=O)(O)OP(=O)(O)OP(=O)(O)O)[C@@H](O)[C@H]1O [ATP]
nucleotide binding assay (supplement) (CCA1): when incubated with CTP or ATP alone, both enzymes showed an almost identical binding behavior
nucleotide binding assay (supplement) (CCA2): when incubated with CTP or ATP alone, both enzymes showed an almost identical binding behavior

total in vivo tRNA-CC pool
pKd ([1]; tRNA pool, native tRNA modifications (isolated from cells)): 5.77

Nc1ccn([C@@H]2O[C@H](COP(=O)(O)OP(=O)(O)OP(=O)(O)O)[C@@H](O)[C@H]2O)c(=O)n1 [CTP]
nucleotide binding assay (supplement) (CCA1): when incubated with CTP or ATP alone, both enzymes showed an almost identical binding behavior
nucleotide binding assay (supplement) (CCA2): when incubated with CTP or ATP alone, both enzymes showed an almost identical binding behavior
